Source: ChEMBL document CHEMBL1201862, “PubChem BioAssay data set” (2004)
Several values for one entry are separate records, joined by “and”; a condition that tells them apart may be missing. Equal values may be shown once. Activity calls are given as the source filed them.

Tests used:
Cytochrome P450 2C19 = Cytochrome P450 2C19 (Homo sapiens, UniProt P33261); assay: Cytochrome panel assay with activity outcomes. Panel member name: p450-cyp2c19 Compounds with AC50 equal or less than 10 uM are considered active; type: functional
Sequence of Cytochrome P450 2C19 (P33261 whole entry): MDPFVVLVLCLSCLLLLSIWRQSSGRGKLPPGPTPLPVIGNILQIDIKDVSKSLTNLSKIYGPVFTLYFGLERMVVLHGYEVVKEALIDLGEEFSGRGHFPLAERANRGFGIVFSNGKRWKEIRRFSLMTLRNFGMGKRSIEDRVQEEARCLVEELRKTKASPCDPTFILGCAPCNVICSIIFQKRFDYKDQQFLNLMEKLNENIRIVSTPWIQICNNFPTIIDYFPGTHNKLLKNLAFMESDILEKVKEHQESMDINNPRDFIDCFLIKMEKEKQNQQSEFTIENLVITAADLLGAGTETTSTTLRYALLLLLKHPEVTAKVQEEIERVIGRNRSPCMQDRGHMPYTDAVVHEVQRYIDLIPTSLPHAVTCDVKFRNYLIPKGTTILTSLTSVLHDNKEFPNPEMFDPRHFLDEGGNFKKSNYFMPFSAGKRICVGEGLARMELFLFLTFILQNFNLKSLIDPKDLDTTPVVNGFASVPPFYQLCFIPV

Cytochrome P450 2C9 = Cytochrome P450 2C9 (Homo sapiens, UniProt P11712)
Sequence of Cytochrome P450 2C9 (P11712 whole entry): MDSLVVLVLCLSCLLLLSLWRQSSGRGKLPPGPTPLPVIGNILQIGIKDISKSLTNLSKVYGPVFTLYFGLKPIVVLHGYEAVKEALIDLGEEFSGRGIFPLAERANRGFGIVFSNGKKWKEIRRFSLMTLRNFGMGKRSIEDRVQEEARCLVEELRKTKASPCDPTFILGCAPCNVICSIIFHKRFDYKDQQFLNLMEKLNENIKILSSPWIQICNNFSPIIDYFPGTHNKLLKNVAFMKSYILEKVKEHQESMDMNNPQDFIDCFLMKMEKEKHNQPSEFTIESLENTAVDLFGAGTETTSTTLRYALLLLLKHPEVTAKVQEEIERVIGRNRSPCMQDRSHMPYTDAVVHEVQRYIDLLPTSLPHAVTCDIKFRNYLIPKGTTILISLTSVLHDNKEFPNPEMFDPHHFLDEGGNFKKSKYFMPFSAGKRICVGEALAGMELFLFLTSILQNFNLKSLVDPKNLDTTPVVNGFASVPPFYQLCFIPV

Cytochrome P450 1A2 = target: T1, Cytochrome P450 1A2 (Homo sapiens, UniProt P05177);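 also: PubChem cytochrome P450 panel assay, CYP1A2 panel member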
T1 sequence (P05177 whole entry): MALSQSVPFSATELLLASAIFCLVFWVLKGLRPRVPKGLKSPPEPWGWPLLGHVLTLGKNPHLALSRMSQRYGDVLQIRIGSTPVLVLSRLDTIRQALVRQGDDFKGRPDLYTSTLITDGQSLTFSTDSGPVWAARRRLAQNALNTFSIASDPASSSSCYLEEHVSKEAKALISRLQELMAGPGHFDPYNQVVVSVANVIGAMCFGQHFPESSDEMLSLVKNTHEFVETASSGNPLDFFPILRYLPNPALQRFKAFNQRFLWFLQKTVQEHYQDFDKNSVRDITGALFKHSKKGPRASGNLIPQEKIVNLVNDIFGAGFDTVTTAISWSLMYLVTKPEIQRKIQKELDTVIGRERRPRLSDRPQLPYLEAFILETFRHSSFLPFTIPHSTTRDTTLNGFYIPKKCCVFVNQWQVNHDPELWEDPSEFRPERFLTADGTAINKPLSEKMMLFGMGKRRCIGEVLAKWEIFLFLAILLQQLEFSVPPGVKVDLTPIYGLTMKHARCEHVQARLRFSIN

Cytochrome P450 2D6 = Cytochrome P450 2D6 (Homo sapiens, UniProt P10635);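 also: CYP2D6 member of a cytochrome P450 panel assay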
Sequence of Cytochrome P450 2D6 (P10635 whole entry): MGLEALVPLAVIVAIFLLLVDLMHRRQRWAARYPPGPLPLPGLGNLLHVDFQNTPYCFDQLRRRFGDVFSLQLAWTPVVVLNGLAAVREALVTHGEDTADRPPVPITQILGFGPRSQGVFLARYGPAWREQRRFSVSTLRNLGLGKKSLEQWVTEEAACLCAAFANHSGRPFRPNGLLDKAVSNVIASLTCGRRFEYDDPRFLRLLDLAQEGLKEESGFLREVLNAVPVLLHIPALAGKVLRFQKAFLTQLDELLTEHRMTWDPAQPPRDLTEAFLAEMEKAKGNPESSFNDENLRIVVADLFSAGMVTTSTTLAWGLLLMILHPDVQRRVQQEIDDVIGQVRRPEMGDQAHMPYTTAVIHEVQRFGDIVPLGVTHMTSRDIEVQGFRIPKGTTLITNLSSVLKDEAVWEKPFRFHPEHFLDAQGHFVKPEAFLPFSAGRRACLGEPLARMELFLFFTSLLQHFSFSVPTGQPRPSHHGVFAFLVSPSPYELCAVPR

[1] = target: T2, Corticotropin-releasing factor receptor 2/Corticotropin-releasing factor-binding protein (Homo sapiens, UniProt P24387+Q13324); assay: activators of CRF receptor 2 with binding protein – uHTS hits, confirmation (AID 602473); type: functional; details: read-out: EC50_Mean
T2 sequence (Q13324 whole entry): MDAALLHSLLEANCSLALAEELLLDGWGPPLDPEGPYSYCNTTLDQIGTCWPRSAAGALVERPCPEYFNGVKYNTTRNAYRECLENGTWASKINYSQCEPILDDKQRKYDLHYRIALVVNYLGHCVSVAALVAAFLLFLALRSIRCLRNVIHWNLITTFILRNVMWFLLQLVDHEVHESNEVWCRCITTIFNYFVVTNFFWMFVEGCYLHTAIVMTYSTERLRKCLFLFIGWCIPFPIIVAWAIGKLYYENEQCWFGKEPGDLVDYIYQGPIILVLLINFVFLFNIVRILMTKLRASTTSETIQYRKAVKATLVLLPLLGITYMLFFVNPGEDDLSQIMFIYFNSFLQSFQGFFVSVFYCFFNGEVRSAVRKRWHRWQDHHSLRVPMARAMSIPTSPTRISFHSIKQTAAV
T2 sequence (P24387 whole entry): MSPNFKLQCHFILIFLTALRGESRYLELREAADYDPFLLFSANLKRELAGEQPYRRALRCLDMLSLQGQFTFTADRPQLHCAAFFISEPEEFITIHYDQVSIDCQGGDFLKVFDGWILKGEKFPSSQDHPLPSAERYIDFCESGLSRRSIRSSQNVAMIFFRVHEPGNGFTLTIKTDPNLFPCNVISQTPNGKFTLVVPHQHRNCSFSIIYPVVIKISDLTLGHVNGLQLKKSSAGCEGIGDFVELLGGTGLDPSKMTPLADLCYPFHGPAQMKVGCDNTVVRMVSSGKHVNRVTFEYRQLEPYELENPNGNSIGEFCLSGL

Cytochrome P450 3A4 = Cytochrome P450 3A4 (Homo sapiens, UniProt P08684);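 also: CYP3A4 tested as one member of a cytochrome P450 panel screen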
Sequence of Cytochrome P450 3A4 (P08684 whole entry): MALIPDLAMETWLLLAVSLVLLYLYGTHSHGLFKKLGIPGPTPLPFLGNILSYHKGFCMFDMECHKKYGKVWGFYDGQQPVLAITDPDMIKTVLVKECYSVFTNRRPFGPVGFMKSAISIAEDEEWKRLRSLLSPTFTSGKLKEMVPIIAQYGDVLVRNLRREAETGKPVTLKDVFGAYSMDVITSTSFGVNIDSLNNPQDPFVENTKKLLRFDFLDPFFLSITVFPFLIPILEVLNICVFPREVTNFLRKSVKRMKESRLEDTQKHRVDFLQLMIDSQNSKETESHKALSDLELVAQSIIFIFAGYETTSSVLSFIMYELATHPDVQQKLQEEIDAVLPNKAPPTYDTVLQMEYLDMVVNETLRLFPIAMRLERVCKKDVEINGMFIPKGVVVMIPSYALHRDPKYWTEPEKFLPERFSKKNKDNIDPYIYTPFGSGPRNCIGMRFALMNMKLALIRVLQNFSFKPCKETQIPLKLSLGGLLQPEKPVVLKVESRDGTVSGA

[2] = viability of uninfected HEp-2 cells – cell-based, HTS, cytotoxicity control for RSV inhibitor project, dose response (AID 2410); type: functional; details: human respiratory syncytial virus
[3] = Luminescence Cell-Based Dose Retest to Confirm Inhibitors of Cancer Stem Cells. [Related pubchem assays (depositor defined):AID2717, AID2721]; type: functional; details: Homo sapiens
INS1 = assay: INS-1E survival protection against cytokine death – cell-based, luminescence, retest, dose response (AID 449756); type: functional; details: Rattus norvegicus;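 also: cell death triggered by IL-1 beta plus TNF-alpha plus IFN-gamma mixture; protective hits raise ATP signal compared with cytokine alone wells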
[4] = tested on: Streptococcus sp. 'group A'; assay: Streptococcus pyogenes SK(-)GAS viability under kanamycin – luminescence, BacTiterGlo, confirmation, counter-screen for streptokinase expression inhibitor project, dose response (AID 1900); type: functional, organism-based
Streptococcus = assay: GAS UMAA2166 growth inhibition – luminescence, BacTiterGlo, counter-screen for streptokinase expression inhibitor project, dose response (AID 1915); type: functional, organism-based;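 also: potency for reduction of bacterial viability or growth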
[5] = NIH3T3 cell viability loss – ATP luminescence, mouse fibroblasts, counter-screen, dose response (AID 2010); type: functional, cell-based;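 also: cells exposed to compound for about 90 hours before reading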
[6] = Trypanosoma cruzi growth suppression in host cells – NIH3T3 host cells, beta-gal luminescence, confirmation (AID 2044); type: functional, cell-based;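 also: intracellular parasites grown in NIH/3T3 mouse fibroblasts as host cells; luminescent beta-galactosidase reporter signal from transgenic T. cruzi replicating inside host cells; inhibitors lower the luminescence signal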

COC(=O)C1C(O)=C(/C=N/Cc2ccccc2)C(=O)CC1(C)C (stereo not drawn)
AC50 (Cytochrome P450 2C19): 39.8 µM (inconclusive) | AC50 (Cytochrome P450 2C9): 14.1 µM (inconclusive)

Cc1cnc(NC(=O)CSc2ccc(Cl)cc2)s1
AC50 (Cytochrome P450 2C9): 20 µM (inconclusive)

Sc1nnc(C2CCCCC2)n1/N=C/c1cccs1
AC50 (Cytochrome P450 2C9): 31.6 µM (inconclusive) | AC50 (Cytochrome P450 1A2): 2 µM (inconclusive)

CS(=O)(=O)Nc1cccc(-c2cncnc2NCc2ccccc2)c1
AC50 (Cytochrome P450 2D6): 20 µM (inconclusive)

CCNc1ncc2nc(-c3cccs3)c(=O)n(Cc3ccc(F)cc3)c2n1
AC50 (Cytochrome P450 2C19): 20 µM (inconclusive) | AC50 (Cytochrome P450 2C9): 31.6 µM (inconclusive) | AC50 (Cytochrome P450 2D6): 31.6 µM (inconclusive) | AC50 (Cytochrome P450 1A2): 10 µM (inconclusive)

CN1CCN(S(=O)(=O)c2cc([N+](=O)[O-])ccc2N2CCCCCC2)CC1
AC50 (Cytochrome P450 1A2): 25.1 µM (inconclusive)

CN(C)c1ncc2ncc(=O)n(CCc3ccccc3)c2n1
AC50 (Cytochrome P450 2D6): 39.8 µM (inconclusive)

O=C(/C=C\NCC(=O)c1ccccc1)c1ccc(F)cc1
AC50 (Cytochrome P450 2C9): 22.4 µM (inconclusive) | AC50 (Cytochrome P450 2D6): 15.8 µM (inconclusive)

CSCCC(NC(=O)c1ccco1)C(=O)N1CC=C(c2ccccc2)CC1 (stereo not drawn)
EC50 [1]: 6.78 µM (active)

CCOc1ccc(NC(=O)c2nnn(CC(=O)Nc3ccccc3OC)c2N)cc1
AC50 (Cytochrome P450 2C19): 3.55 µM (inconclusive)

CC1=CC(=C2C(=O)c3ccccc3C2=O)C=C(C)O1
AC50 (Cytochrome P450 3A4): 14.1 µM (inconclusive)

CCC(CC)C(=O)NCCN1CCN(C(=O)C(CC)CC)CC1
AC50 (Cytochrome P450 2C19): 31.6 µM (inconclusive)

Cc1cc(C(=O)C(=O)NC(C)C)c(C)n1-c1ccc([N+](=O)[O-])cc1
AC50 (Cytochrome P450 2C19): 0.0708 µM (inconclusive)

CN1CC[C@H](CN2c3ccccc3Sc3ccccc32)C1
AC50 (Cytochrome P450 1A2): 5.01 µM (inconclusive)

O=c1c(CCc2ccccc2)nc2cnc(N3CCOCC3)nc2n1Cc1cccs1
AC50 (Cytochrome P450 2C9): 3.16 µM (inconclusive)

[O-][S+](Cc1ccc(Br)cc1)Cc1nnc(SCc2ccc(Cl)cc2)n1-c1ccccc1 (stereo not drawn)
AC50 (Cytochrome P450 2D6): 12.6 µM (inconclusive) | AC50 (Cytochrome P450 1A2): 25.1 µM (inconclusive)

COc1cccc(Cn2c(=O)c(CCc3ccccc3)nc3cnc(N4CCNCC4)nc32)c1
AC50 (Cytochrome P450 2D6): 31.6 µM (inconclusive) | AC50 (Cytochrome P450 1A2): 12.6 µM (inconclusive)

COc1c(CC=C(C)C)c(O)cc2oc(=O)c3c4ccc(O)cc4oc3c12 [GLYCYROL]
CC50 [2]: 26.5 µM (active)

Cc1ccc(C(C)C)c2c1C(c1ccc3c(c1)OCO3)CC(=O)O2 (stereo not drawn)
EC50 [1]: 4.51 µM (active)

Cc1cccc(NC(NC(=O)c2cccnc2)C(Cl)(Cl)Cl)c1 (stereo not drawn)
AC50 (Cytochrome P450 1A2): 22.4 µM (inconclusive)

Cc1ccc(C(=O)NCCNC(=O)c2ccc(F)cc2)cn1
EC50 [1]: > 53 µM (inactive)

S=C(c1ccc(-c2ccc(Br)cc2)o1)N1CCCCC1
CC50 [2]: 29.3 µM (active)

O=C1C=C(c2ccc(F)cc2OCc2ccccc2)C[C@@H](c2ccc(F)cc2)C1
AC50 [3]: 0.964 µM (active)

CC(C)=C[C@H]1[C@@H](C(=O)OCc2cc3c(cc2Cl)OCO3)C1(C)C
AC50 (Cytochrome P450 2C9): 3.16 µM (inconclusive) | AC50 (Cytochrome P450 2D6): 5.01 µM (inconclusive) | AC50 (Cytochrome P450 1A2): 0.794 µM (inconclusive)

O=S(=O)(NC1CC1)c1ccc(S(=O)(=O)N2CCC(c3nc(O)c4nnn(Cc5cccc(F)c5)c4n3)CC2)cc1
CC50 [2]: 24.8 µM (active)

O=C(Oc1ccccc1)N1CCC2(CCN(Cc3ccncc3)CC2)CC1
AC50 (Cytochrome P450 1A2): 25.1 µM (inconclusive)

CCCCCCSc1cc(-c2nc3ccc(C)cn3c2NCCCC)ccc1OC
AC50 [3]: 5.12 µM (active) | AC50 (INS1): 7.09 µM (active)

COc1ccc(-n2nnnc2SCC(=O)Nc2ccccc2)cc1
AC50 (Cytochrome P450 2D6): 2.51 µM (inconclusive)

COc1cc(OC)c(C(=O)Nc2ccccc2-c2ccccc2)cc1OC
CC50 [2]: 18.9 µM (active)

c1cc(CN2CCCCC2)cc(OCCCNc2nc3ccccc3s2)c1 [ZOLANTIDINE]
AC50 (Cytochrome P450 1A2): 31.6 µM (inconclusive) and 15.8 µM (inconclusive)

FC(F)(F)c1cc(CN2CCCC3(CCNCC3)C2)cc(C(F)(F)F)c1
AC50 (Cytochrome P450 2D6): 12.6 µM (inconclusive)

COc1ccc(-c2csc(-c3cccnc3)n2)cc1C
CC50 [2]: 38.8 µM (active)

O=C1c2ccccc2C(=O)C1c1ccccc1 [PHENINDIONE]
AC50 (Cytochrome P450 1A2): 15.8 µM (inconclusive)

COc1ccc(-n2c(S)nnc2CNC(=O)c2ccc(S(=O)(=O)N3CCCC3)cc2)cc1
AC50 (Cytochrome P450 2C9): 20 µM (inconclusive)

Cc1cccc(N2CCN(C(=O)Cc3ccc(-n4c(=O)[nH]c5ccsc5c4=O)cc3)CC2)c1C
CC50 [2]: 30.2 µM (active)

O=C(c1ccco1)N1CCC[C@@]2(CCN(c3cccc(-c4ccccc4)c3)C2)C1
AC50 (Cytochrome P450 2D6): 25.1 µM (inconclusive)

CCC(=O)Nc1ccccc1C(=O)OCC(=O)c1cccc2ccccc12
AC50 (Cytochrome P450 2D6): 0.0891 µM (inconclusive)

C=CCN1C(=O)CN=C1Nc1ccccc1
AC50 (Cytochrome P450 2C9): 0.0708 µM (inconclusive) | AC50 (Cytochrome P450 1A2): 28.2 µM (inconclusive)

COc1ccc2c(c1)OC[C@H]1[C@H]2N2C(=O)CN(Cc3ccc(Cl)cc3)C(=O)[C@@]2(C)[C@H]1c1ccccc1
CC50 [2]: 14.7 µM (active)

C[N+]1(C)CCC(=C(c2ccccc2)c2ccccc2)CC1
AC50 (Cytochrome P450 2D6): 12.6 µM (inconclusive)

COc1cccc(C2=NOC(C(=O)Nc3cccnc3)C2)c1 (stereo not drawn)
AC50 (Cytochrome P450 2C9): 25.1 µM (inconclusive)

CCOc1ccc(S(=O)(=O)N2CCN(C(=O)c3cc(-c4ccccc4)nn3-c3ccccc3)CC2)cc1
CC50 [2]: 48 µM (active)

Cc1ccc(-c2nc3ccccc3c(=O)n2-c2ncccc2C)cc1
AC50 (Cytochrome P450 2C19): 28.2 µM (inconclusive) | AC50 (Cytochrome P450 2C9): 17.8 µM (inconclusive)

COc1cccc(-c2nc(NCc3ccccc3OC)c3ccccc3n2)c1
AC50 (Cytochrome P450 2C9): 1 µM (inconclusive) | AC50 (Cytochrome P450 2D6): 10 µM (inconclusive)

Cc1nn(C)c(Cl)c1CN1CCCC(CO)(Cc2cccc(Cl)c2)C1 (stereo not drawn)
CC50 [2]: 43.6 µM (active)

CC(C)=CCC12Oc3cc(O)ccc3C1(O)Oc1cc3c(c(O)c1C2=O)C=CC(C)(C)O3 (stereo not drawn)
EC50 [4]: 3.32 µM (active) | EC50 (Streptococcus): 3.92 µM (active)

COc1ccc(NC(=O)N2CCCC2C(=O)Nc2ccccc2)cc1 (stereo not drawn)
AC50 (Cytochrome P450 2C19): 20 µM (inconclusive) | AC50 (Cytochrome P450 2C9): 28.2 µM (inconclusive)

CCn1c(N2CCN(S(=O)(=O)c3ccc(F)cc3)CC2)nc2ccccc21
AC50 [3]: > 195 µM (inactive)

CCOC(=O)C1=C(N)Oc2cc(O)ccc2C1c1ccc([N+](=O)[O-])cc1 (stereo not drawn)
CC50 [2]: 16.9 µM (active) | EC50 [5]: > 60 µM (not active) | EC50 [6]: 0.659 µM (active)

C[C@H]1C[C@@H]2[C@H]3CCC4=CC(=O)C=C[C@@]4(C)[C@@]3(Cl)[C@@H](O)C[C@]2(C)[C@]1(OC(=O)c1ccco1)C(=O)CCl
AC50 (Cytochrome P450 2C19): 7.94 µM (inconclusive) | AC50 (Cytochrome P450 2C9): 5.01 µM (inconclusive) | AC50 (Cytochrome P450 1A2): 5.01 µM (inconclusive)

COc1ccc(Sc2ccc(-c3nc4cnccn4c3NC3CCCCC3)cc2OC)cc1
AC50 [3]: 2.93 µM (active)

CC1(C)CC(=O)C2=C(C1)N(Cc1cccnc1)C(=O)C2(NC(=O)c1cccnc1)C(F)(F)F (stereo not drawn)
AC50 (Cytochrome P450 2C19): 15.8 µM (inconclusive) | AC50 (Cytochrome P450 2C9): 0.0794 µM (inconclusive) | AC50 (Cytochrome P450 1A2): 28.2 µM (inconclusive)

NC(=NCc1ccccc1)NC(=O)c1nc(Cl)c(N)nc1N [BENZAMIL]
AC50 (Cytochrome P450 1A2): 12.6 µM (inconclusive) and 10 µM (inconclusive)

O=C(Cn1nnc(-c2ccccc2)n1)OCc1ccccc1
AC50 (Cytochrome P450 2C9): 8.91 µM (inconclusive)

Cc1ccc(-n2c(C)cc(C(=O)CSc3n[nH]c(N)n3)c2C)cc1
AC50 (Cytochrome P450 2C9): 6.31 µM (inconclusive)

CN(C)C(=O)c1ccc(-c2nc(-n3ccnc3)c3ccccc3n2)cc1
AC50 (Cytochrome P450 1A2): 20 µM (inconclusive)
